Source: BindingDB's records for doi:10.1016/j.ejmech.2021.113485 (Samara State Technical University, 2021)
pIC50: −log10 of the molar value.

Experiment: Inhibition of p37 in Vaccinia virus Copenhagen infected in African green monkey Vero cells assessed as reduction in viral reproduction incubated for 4 days by neutral red dye based colorimetric analysis

SMILES | pIC50
O=C(NC12CC3CC(CC(C3)C1)C2)c1ccc(C(F)(F)F)cc1 | 6.88
CCC12CC3CC(C1)CC(NC(=O)c1ccc(C(F)(F)F)cc1)(C3)C2 | 5.39
CN(C(=O)c1ccc(C(F)(F)F)cc1)C12CC3CC(CC(C3)C1)C2 | 5.31
O=C(NCC12CC3CC(CC(C3)C1)C2)c1ccc(C(F)(F)F)cc1 | 6.57
O=C(NCC12CC3CC(CC(C3)C1)C2)c1ccc(Br)cc1 | 5.08
O=C(NC1C2CC3CC(C2)CC1C3)c1ccc(Br)cc1 (stereo not drawn) | 5.51
O=C(NC1C2CC3CC(C2)CC1C3)c1ccc(C(F)(F)F)cc1 (stereo not drawn) | 6.67
O=C(NNC(=O)C12CC3CC(CC(C3)C1)C2)c1ccc(C(F)(F)F)cc1 | 5.97
CC12CC3CC(C)(C1)CC(C(=O)NNC(=O)c1ccc(C(F)(F)F)cc1)(C3)C2 | 4.51
CCC12CC3CC(C1)CC(C(=O)NNC(=O)c1ccc(C(F)(F)F)cc1)(C3)C2 | 4.90
O=C(NNC(=O)c1ccc(C(F)(F)F)cc1)NC12CC3CC(CC(C3)C1)C2 | 4.44
O=C(NN=C1C2CC3CC(C2)CC1C3)c1ccc(C(F)(F)F)cc1 | 3.70
O=C(NNC1C2CC3CC(C2)CC1C3)c1ccc(C(F)(F)F)cc1 (stereo not drawn) | 5.55
O=C(NNC1C2CC3CC1CC(Cl)(C3)C2)c1ccc(C(F)(F)F)cc1 (stereo not drawn) | 5.45
CC(NNC(=O)c1ccc(C(F)(F)F)cc1)C12CC3CC(CC(C3)C1)C2 (stereo not drawn) | 6.29
CCC12CC3CC(C1)CC(NNC(=O)c1ccc(C(F)(F)F)cc1)(C3)C2 | 5.78
CC12CC3CC(C1)CC(NC(=O)c1ccc(C(F)(F)F)cc1)(C3)C2 | 5.05
O=C(NN1C(=O)[C@@H]2[C@@H]3C=C[C@@H]([C@H]4C[C@@H]34)[C@@H]2C1=O)c1ccc(C(F)(F)F)cc1 [Tecovirimat] | 8.57
